Test results published in PubChem BioAssay (NCI).
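Where inhibition never reached the appropriate level, the endpoint shown equals the highest concentration tested. Otherwise, values were interpolated linearly from a five-concentration, 48-hour dose response in 96-well plates. GI50: concentration for 50% inhibition of growth. TGI: total growth inhibition.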

Key:
Assay in all cases: NCI tumour cell line growth inhibition, 48 h
[1] = test system: OVCAR-5 ovarian
[2] = test system: OVCAR-4 ovarian
[3] = test system: HS 578T breast
[4] = test system: SF-295 CNS
[5] = test system: SK-MEL-2 melanoma
[6] = test system: MOLT-4 leukemia
[7] = test system: LOX IMVI melanoma
[8] = test system: OVCAR-3 ovarian
[9] = test system: NCI-H460 lung
[10] = test system: SNB-75 CNS
[11] = test system: BT-549 breast
[12] = test system: NCI-H226 lung
[13] = test system: EKVX NSCLC
[14] = test system: SK-MEL-28 melanoma
[15] = test system: 786-0 renal
[16] = test system: U251 CNS
[17] = test system: RPMI-8226 leukemia
[18] = test system: HCT-15 colon
[19] = test system: HL-60(TB) leukemia
[20] = test system: DU-145 prostate
[21] = test system: NCI/ADR-RES ovarian
[22] = test system: MDA-MB-435
[23] = test system: HCC-2998 colon
[24] = test system: HOP-92 NSCLC
[25] = test system: HCT-116 colon
[26] = test system: MDA-MB-468 breast
[27] = test system: SK-MEL-5 melanoma
[28] = test system: NCI-H522 lung
[29] = test system: SK-OV-3 ovarian
[30] = test system: HOP-62 NSCLC
[31] = test system: SF-539 CNS
[32] = test system: HT29 colon
[33] = test system: CCRF-CEM leukemia
[34] = test system: SNB-19 CNS
[35] = test system: A498 renal
[36] = test system: CAKI-1 renal
[37] = test system: NCI-H23 lung
[38] = test system: MDA-MB-231 breast
[39] = test system: T-47D breast
[40] = test system: RXF 393 renal
[41] = test system: UO-31 renal
[42] = test system: SW-620 colon
[43] = test system: KM12 colon
[44] = test system: UACC-257 melanoma
[45] = test system: A549 NSCLC
[46] = test system: COLO 205 colon
[47] = test system: SR leukemia
[48] = test system: SN12C renal
[49] = test system: SF-268 CNS
[50] = test system: MALME-3M melanoma
[51] = test system: M14 melanoma
[52] = test system: OVCAR-8 ovarian
[53] = test system: IGROV1 ovarian
[54] = test system: PC-3 prostate
[55] = test system: MCF7 breast
[56] = test system: ACHN renal
[57] = test system: TK-10 renal
[58] = test system: UACC-62 melanoma
[59] = test system: K-562 leukemia

Question: Which results are given for `COc1cc2oc(-c3cccc(C(=O)Nc4ccc(Cl)cc4)c3)cc(=O)c2c(OCCNC(=O)[C@@H](N)CO)c1OC`?
Answer: GI50 [1]: 9.96 µM; TGI [1]: 44.3 µM; GI50 [2]: 12.8 µM; TGI [2]: 30.3 µM; GI50 [3]: 4.32 µM; TGI [3]: 18.2 µM; GI50 [4]: 6.84 µM; TGI [4]: 25.1 µM; GI50 [5]: 2.1 µM; TGI [5]: 5.03 µM; GI50 [6]: 2.4 µM; TGI [6]: 5.18 µM; GI50 [7]: 1.79 µM; TGI [7]: 3.5 µM; GI50 [8]: 13.4 µM; TGI [8]: 26.9 µM; GI50 [9]: 8.48 µM; TGI [9]: 22.1 µM; GI50 [10]: 10.2 µM; TGI [10]: 24.3 µM; GI50 [11]: 10.3 µM; TGI [11]: 25.4 µM; GI50 [12]: 12.8 µM; TGI [12]: 53 µM; GI50 [13]: 16.8 µM; TGI [13]: > 100 µM; GI50 [14]: 1.77 µM; TGI [14]: 3.46 µM; GI50 [15]: 13.2 µM; TGI [15]: 32.4 µM; GI50 [16]: 2.02 µM; TGI [16]: 3.9 µM; GI50 [17]: 3.36 µM; TGI [17]: > 100 µM; GI50 [18]: 19.6 µM; TGI [18]: > 100 µM; GI50 [19]: 8.2 µM; TGI [19]: 30.4 µM; GI50 [20]: 16 µM; TGI [20]: 35.4 µM; GI50 [21]: > 100 µM; TGI [21]: > 100 µM; GI50 [22]: 4.59 µM; TGI [22]: 17.8 µM; GI50 [23]: 5.83 µM; TGI [23]: 19.3 µM; GI50 [24]: 2.65 µM; TGI [24]: 12.7 µM; GI50 [25]: 4.72 µM; TGI [25]: 19.5 µM; GI50 [26]: 1.51 µM; TGI [26]: 3.63 µM; GI50 [27]: 9.11 µM; TGI [27]: 26.6 µM; GI50 [28]: 3.61 µM; TGI [28]: 18 µM; GI50 [29]: 14.8 µM; TGI [29]: 38.2 µM; GI50 [30]: 7.74 µM; TGI [30]: 29 µM; GI50 [31]: 11.3 µM; TGI [31]: 24.5 µM; GI50 [32]: 6.44 µM; TGI [32]: 26.6 µM; GI50 [33]: 2.39 µM; TGI [33]: 5.83 µM; GI50 [34]: 4.94 µM; TGI [34]: 18 µM; GI50 [35]: 32.8 µM; TGI [35]: 65.7 µM; GI50 [36]: 65.4 µM; TGI [36]: > 100 µM; GI50 [37]: 12.6 µM; TGI [37]: 30.2 µM; GI50 [38]: 2.87 µM; TGI [38]: 9.37 µM; GI50 [39]: 4.19 µM; TGI [39]: 21.9 µM; GI50 [40]: 8.76 µM; TGI [40]: 67.6 µM; GI50 [41]: 45.6 µM; TGI [41]: > 100 µM; GI50 [42]: 3.93 µM; TGI [42]: 14.1 µM; GI50 [43]: 15.3 µM; TGI [43]: 29.1 µM; GI50 [44]: 1.97 µM; TGI [44]: 3.74 µM; GI50 [45]: > 100 µM; TGI [45]: > 100 µM; GI50 [46]: 6 µM; TGI [46]: 20.2 µM; GI50 [47]: 2.66 µM; TGI [47]: 7.75 µM; GI50 [48]: 6.64 µM; TGI [48]: 21.4 µM; GI50 [49]: 13.9 µM; TGI [49]: 32.4 µM; GI50 [50]: 2.47 µM; TGI [50]: 6.92 µM; GI50 [51]: 1.84 µM; TGI [51]: 3.72 µM; GI50 [52]: 10.1 µM; TGI [52]: 21.7 µM; GI50 [53]: 7.15 µM; TGI [53]: 23.9 µM; GI50 [54]: 10.8 µM; TGI [54]: 35.6 µM; GI50 [55]: 3.53 µM; TGI [55]: 13.3 µM; GI50 [56]: 30.6 µM; TGI [56]: > 100 µM; GI50 [57]: 16.9 µM; TGI [57]: 37 µM; GI50 [58]: 13.5 µM; TGI [58]: 31.6 µM

Question: Which results are given for `COc1ccc2[nH]c(O)c(N=NC(=O)Cn3c(-c4ccccc4)nc4cc(C)ccc43)c2c1`?
Answer: GI50 [1]: 14.9 µM; TGI [1]: 28.6 µM; GI50 [2]: 15 µM; TGI [2]: 36.9 µM; GI50 [3]: 13.2 µM; TGI [3]: 46.1 µM; GI50 [4]: 14.3 µM; TGI [4]: 29 µM; GI50 [5]: 14.9 µM; TGI [5]: 30.4 µM; GI50 [6]: 10.6 µM; TGI [6]: 37.2 µM; GI50 [7]: 14.9 µM; TGI [7]: 28.3 µM; GI50 [8]: 17.5 µM; TGI [8]: 42.9 µM; GI50 [9]: 19.3 µM; TGI [9]: 42.3 µM; GI50 [10]: 9.86 µM; TGI [10]: 24.2 µM; GI50 [11]: 13.4 µM; TGI [11]: 27.9 µM; GI50 [12]: 14 µM; TGI [12]: 30.7 µM; GI50 [13]: 11 µM; TGI [13]: 24.6 µM; GI50 [14]: 16.5 µM; TGI [14]: 30.9 µM; GI50 [15]: 16 µM; TGI [15]: 30.2 µM; GI50 [16]: 17 µM; TGI [16]: 36.2 µM; GI50 [17]: 9.97 µM; TGI [17]: 35.9 µM; GI50 [18]: 15.5 µM; TGI [18]: 31.1 µM; GI50 [19]: 17.5 µM; TGI [19]: 42.3 µM; GI50 [20]: 19.9 µM; TGI [20]: 44.4 µM; GI50 [21]: 16.8 µM; TGI [21]: 34.5 µM; GI50 [22]: 16.7 µM; TGI [22]: 34.7 µM; GI50 [23]: 17.5 µM; TGI [23]: 31.6 µM; GI50 [24]: 3.3 µM; TGI [24]: 18 µM; GI50 [25]: 14 µM; TGI [25]: 28 µM; GI50 [26]: 14.9 µM; TGI [26]: 30.2 µM; GI50 [27]: 15 µM; TGI [27]: 28.5 µM; GI50 [59]: 18 µM; TGI [59]: 62.4 µM; GI50 [28]: 15.2 µM; TGI [28]: 32.4 µM; GI50 [29]: 15.8 µM; TGI [29]: 31.3 µM; GI50 [30]: 16 µM; TGI [30]: 35.6 µM; GI50 [31]: 14.9 µM; TGI [31]: 28.5 µM; GI50 [32]: 21.5 µM; TGI [32]: 55.5 µM; GI50 [33]: 17.3 µM; TGI [33]: 43.6 µM; GI50 [34]: 16.2 µM; TGI [34]: 32.6 µM; GI50 [35]: 17.1 µM; TGI [35]: 32.6 µM; GI50 [36]: 12.6 µM; TGI [36]: 27 µM; GI50 [37]: 16.7 µM; TGI [37]: 31.8 µM; GI50 [38]: 13.1 µM; TGI [38]: 26.4 µM; GI50 [39]: 7.33 µM; TGI [39]: 28.1 µM; GI50 [40]: 2.37 µM; TGI [40]: 12.6 µM; GI50 [41]: 7.52 µM; TGI [41]: 23.7 µM; GI50 [42]: 20.1 µM; TGI [42]: 47.6 µM; GI50 [43]: 18.7 µM; TGI [43]: 42.5 µM; GI50 [44]: 15.9 µM; TGI [44]: 31.7 µM; GI50 [45]: 16.6 µM; TGI [45]: 36.7 µM; GI50 [46]: 17.5 µM; TGI [46]: 35.1 µM; GI50 [48]: 13.5 µM; TGI [48]: 26.9 µM; GI50 [49]: 18.5 µM; TGI [49]: 64.2 µM; GI50 [50]: 14.5 µM; TGI [50]: 28.8 µM; GI50 [51]: 15.7 µM; TGI [51]: 31.2 µM; GI50 [52]: 15.7 µM; TGI [52]: 37.1 µM; GI50 [53]: 14.7 µM; TGI [53]: 29.6 µM; GI50 [54]: 10.7 µM; TGI [54]: 26.5 µM; GI50 [55]: 13.5 µM; TGI [55]: 31.6 µM; GI50 [56]: 14.5 µM; TGI [56]: 27.5 µM; GI50 [57]: 29 µM; TGI [57]: 77.3 µM; GI50 [58]: 12.4 µM; TGI [58]: 25.5 µM
